Results reported in patent US20170234881A1, “METHODS OF DIAGNOSING AND TREATING CANCER” (INSERM ( INSTITUT NATIONAL DE LA SANTÉ ET DE LA RECHERCHE …, priority 2014, published 2017).

Columns and labels:
TS/A tumors = experiment: Growth of TS/A tumors implanted s.c. into mice; type: in vivo; conditions: after 13 days, s.c. every day, Tam 56 mg/kg or DDA 20 mg/kg alone
Protocol: FIG. 2. OCDO is a tumor promoter in vitro and in vivo and its inhibition contributes to the anti-tumor effects of Tam and DDA. (A, B) Histograms representing the effect of OCDO or 17β-estrogen (E2) on MCF7 (A) and TS/A (B) cell proliferation after 24 h treatment using a colorimetric immunoassay measuring BrDU incorporation in DNA (C, D) Histogram representing the effect of OCDO on MCF7 (C) and TS/A (D) cell invasion. Data are the mean of three separate experiments (±s.e.m), *P<0.05, **P<0.01, ***P<0.001 (Student's t-test). (E, F) Mice were implanted s.c. with MCF7 (E) or TS/A (F) cells and animals (8 per group) were treated s.c. every day starting on the day of implantation with either the solvent vehicle or OCDO (16 μg/kg for MCF7 or 50 μg/kg for TS/A). Animals were monitored for tumour growth twice a week. The data are representative of three independent experiments. The mean tumor volume±s.e.m is shown, *P<0.05, **P<0.01, ***P<0.001 (analysis of variance (ANOVA), Dunnett's post test). (G) Mean (±s.e.m) of Ki67 positive cell number determined from IHC staining of MCF7 tumor sections from (E), n=8, *P<0.05 (Student's t-test) using HistoQuant, Pannoramic Viewer (3DHistech). (H) Representative Ki67 staining of TS/A tumor sections from (F) showing increased staining in OCDO-treated tumor compared with control-treated tumor. (I, J, K). Murine E0771(I), or human MDA-MB231 (J) or MDA-MB468 (K) cells implanted s.c. into mice (8 per group) and animals were treated s.c. with either the solvent vehicle or OCDO (16 μg/kg for MDA-MB-231 and MDA-MB-468 or 50 μg/kg for E0771). The data are representative of two independent experiments. Statistical analysis was performed as in E and F. (L) Mice were implanted s.c. with TS/A cells and animals (8 per group) were treated s.c. every day with either the solvent vehicle, OCDO (50 μg/kg), Tam (56 mg/kg), DDA (20 mg/kg) or the combination of Tam (56 mg/kg) +OCDO (50 μg/kg) or DDA (20 mg/kg)+OCDO (50 μg/kg). The data are representative of three independent experiments. Statistical analysis was performed as in E and F.
Exponentially growing MCF7, ShMCF7, E0771, MDA-MB231, MDA-MB468 and TS/A cells were collected, washed twice in PBS and resuspended in PBS. TS/A and E9771 tumours were prepared by subcutaneous transplantation of 35×10^3 cells or 3×10^5 cells respectively in 100 μl PBS into the flank of BALB/c or C57B16 mice. For other tumors, 5 to 10×10^6 cells in 200 μl PBS/matrigel (1/1) were injected into the flank of NMRI nude mice. Animals were treated as indicated in the legends. Animals were examined daily, and body weights were measured twice per week. In all the experiments, the tumor volume was determined by direct measurement with a caliper and was calculated using the formula (width^2×length)/2. Tumors were either frozen in liquid nitrogen or fixed in 10% neutral-buffered formalin and embedded in paraffin for immunohistochemical analysis. Paraffin sections were stained with haematoxylin and eosin for histomorphological analyses. Immunohistochemical staining was done on paraffin-embedded tissue sections, using a specific Ki67 antibody (Dako).
We then assayed the anti-growth effect of Tam or DDA against TS/A tumors in the absence and presence of OCDO. As above, TS/A tumors implanted into immunocompetent mice were treated s.c. every day either with either the solvent vehicle (control), OCDO (50 μg/kg), Tam (56 mg/kg), DDA (20 mg/kg) or the combination of Tam (56 mg/kg)+OCDO (50 μg/kg) or DDA (20 mg/kg) +OCDO (50 μg/kg).

shHSD2 MCF7 cells = experiment: Proliferation of shHSD2 MCF7 cells (BrDU); type: cell-based, human; conditions: sh11HSD2 MCF7 cells, 24 h; OCDO 5 μM; cortisone increasing concentrations
Protocol: FIG. 7. Knock-down of 11βHSD2 decreases cell proliferation, invasion and survival in MCF7 cells as well as tumor growth and OCDO reverses these effects. shC or shHSD2 MCF7 cells were analyzed as followed: (A) The proliferation of sh-C or shHSD2 cells treated or not with OCDO 5 μM 24 h was measured using quantification of DNA BrDU incorporation as described in FIG. 2A. (B) The proliferation of sh-C or shHSD2 cells treated or not with increasing concentration of cortisone for 24 h was measured as in (A). (C) The invasiveness of sh-C or shHSD2 cells treated or not with OCDO 5 μM for 72 h was assayed using matrigel-coated filters. (D) the formation of colony by sh-C or shHSD2 cells treated or not with OCDO 1 μM was quantified as described in FIG. 6F. […] Animals were monitored for tumor growth twice a week. […] (F) Mean (±s.e.m) of Ki67 positive cell number determined from IHC staining of shC or shHSD2 MCF7 tumor sections from (E), n=8, *P<0.05 (Student's t-test) using HistoQuant, Pannoramic Viewer (3DHistech).
MCF7 or HEK293T cells (5×10^6 cells) were transfected with 5 μg of the indicated plasmid using the NEON Transfection System and according to the manufacturer's recommendations. […] Several clones were analyzed by immunoblot analysis and real time RT-qPCR for the knock down of the expression of the protein of interest. […]

| Compound | inhibition of TS/A tumor growth compared with the control group (TS/A tumors) | effect on the inhibition of cell proliferation induced by 11βHSD2 knock-down (shHSD2 MCF7 cells) |
| --- | --- | --- |
| CC(C)CCCC(C)[C@H]1CCC2C3C[C@@H](NCCc4cnc[nH]4)[C@@]4(O)C[C@@H](O)CC[C@]4(C)C3CC[C@@]21C (stereo partly drawn) [DDA, 5-hydroxy-6-[2-(1H-imidazol-4-yl)ethylamino]cholestan-3-ol, reference compound] | 33% | – |
| CC/C(=C(\c1ccccc1)c1ccc(OCCN(C)C)cc1)c1ccccc1 [Tam, (Z)-2-[4-(1,2-diphenylbut-1-enyl)phenoxy]-N,N-dimethylethanamine, reference compound] | 31% | – |
| C[C@]12CCC(=O)C=C1CC[C@@H]1[C@@H]2C(=O)C[C@@]2(C)[C@H]1CC[C@]2(O)C(=O)CO [cortisone, reference compound] | – | did not |
